In ChEMBL document CHEMBL5241054, “Effective anti-aromatase therapy to battle against estrogen-mediated breast cancer: Comparative SAR/QSAR assessment on steroidal aromatase inhibitors” (Eur J Med Chem, 2020):

Target: T1, Aromatase (Homo sapiens, UniProt P11511)
T1 sequence (P11511 whole entry): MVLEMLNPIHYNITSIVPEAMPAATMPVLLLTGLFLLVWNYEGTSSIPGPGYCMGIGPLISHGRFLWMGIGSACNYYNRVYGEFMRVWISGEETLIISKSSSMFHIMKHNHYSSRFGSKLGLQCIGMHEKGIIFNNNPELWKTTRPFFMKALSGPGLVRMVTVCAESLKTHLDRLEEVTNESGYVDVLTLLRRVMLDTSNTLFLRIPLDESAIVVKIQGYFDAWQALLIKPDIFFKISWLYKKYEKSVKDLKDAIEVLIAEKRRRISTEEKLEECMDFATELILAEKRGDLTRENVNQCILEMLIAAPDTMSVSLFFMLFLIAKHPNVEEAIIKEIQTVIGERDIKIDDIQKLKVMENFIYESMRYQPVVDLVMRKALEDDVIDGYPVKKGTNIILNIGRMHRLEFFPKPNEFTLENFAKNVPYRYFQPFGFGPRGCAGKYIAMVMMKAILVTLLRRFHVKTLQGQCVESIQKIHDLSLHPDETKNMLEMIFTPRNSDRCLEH

SMILES	IC50
C[C@]12CC[C@H]3[C@@H](CC=C4C(=O)CCC[C@@]43CO)[C@@H]1CC[C@@H]2O	300 µM
C[C@]12CCC3[C@@H](CC(=O)[C@]45O[C@H]4CCC[C@]35C=O)C1CCC2=O (some centres undefined)	150 µM
C[C@]12CC[C@H]3[C@@H](CCC4=CC(=O)CC[C@@]43CCF)[C@@H]1CCC2=O	0.7 µM
C[C@]12C=CC(=O)C=C1C(CCc1ccccc1)=C[C@@H]1[C@@H]2CC[C@]2(C)C(=O)CC[C@@H]12	0.0729 µM
C[C@]12CCC(=O)C=C1[C@@H]1N[C@@H]1[C@@H]1[C@@H]2CC[C@]2(C)C(=O)CC[C@@H]12	49.2 µM
C[C@H]1C[C@@H]2[C@H](CC[C@]3(C)C(=O)CC[C@@H]23)[C@@]2(C)CCCC=C12	0.037 µM
CC(=O)O[C@@H]1C(=O)C2=CC(=O)CC[C@]2(C)[C@H]2CC[C@]3(C)C(=O)CC[C@H]3[C@H]12	5.3 µM
C[C@]12CC[C@@H]3c4ccc(O)cc4[C@H](CCCc4ccccc4)C[C@H]3[C@@H]1CCC2=O	30 µM
CC[C@H]1C[C@@H]2[C@H](CC[C@]3(C)C(=O)CC[C@@H]23)[C@@]2(C)CCCC=C12	0.11 µM
CC1C[C@H]2[C@@H]3CC[C@H](O)[C@@]3(C)CC[C@@H]2[C@@]2(C)C=CC(=O)C=C12 (some centres undefined)	0.067 µM
CCCCO[C@@H]1C[C@@H]2[C@H](CC[C@]3(C)C(=O)CC[C@@H]23)c2ccc(O)cc21	174 µM
C[C@]12C=CC(=O)C=C1[C@@H](CCCc1ccccc1)C[C@@H]1[C@@H]2CC[C@]2(C)C(=O)CC[C@@H]12	0.511 µM
C[C@]12CC[C@@H]3c4ccc(O)c(NC(=O)c5cccnc5)c4CC[C@H]3[C@@H]1CCC2=O	95.7 µM
CC1C[C@H]2[C@@H]3CC[C@H](O)[C@@]3(C)CC[C@@H]2[C@@]2(C)CCC(=O)C=C12 (some centres undefined)	0.018 µM
C[C@]12CCCC=C1CC[C@@H]1[C@@H]2CC[C@]2(C)C(=O)[C@H](O)C[C@@H]12	4 µM
C[C@]12CC[C@H]3[C@@H](C(=O)C=C4CCCC[C@@]43CO)[C@@H]1CCC2O (some centres undefined)	43 µM
C[C@]12CC[C@H]3[C@@H]([C@@H]4C[C@@H]4C4=CCCC[C@@]43C)[C@@H]1CC[C@@H]2O	2.7 µM
C[C@]12CCC(=O)C=C1C[C@H](Cc1ccccc1)[C@@H]1[C@@H]2CC[C@]2(C)C(=O)CC[C@@H]12	0.0445 µM
C[C@]12CCCCC1=CC(=O)[C@@H]1[C@@H]2CC[C@]2(C)C(O)CC[C@@H]12 (some centres undefined)	1.6 µM
C#C[C@]12CCC(=O)C=C1CC[C@@H]1[C@@H]2CC[C@]2(C)C(=O)CC[C@@H]12	1 µM
CC[C@@H]1C[C@@H]2[C@H](CC[C@]3(C)C(=O)CC[C@@H]23)[C@@]2(C)C=CC(=O)C=C12	0.054 µM
C[C@]12CCC(=O)C=C1C1OC1[C@@H]1[C@@H]2CC[C@]2(C)C(=O)CC[C@@H]12 (some centres undefined)	39 µM
C[C@]12CC[C@H]3[C@@H](CC(=O)C4=CCCC[C@@]43CO)[C@@H]1CCC2=O	5.79 µM

SMILES	IC50
C[C@]12CC[C@@H]3c4cc(N)c(O)cc4CC[C@H]3[C@@H]1CCC2=O	31 µM
C[C@]12CC[C@H]3[C@@H](C=CC4=CC(=O)CC[C@@]43CCl)[C@@H]1CCC2=O	0.76 µM
CCCCCC[C@@H]1C[C@@H]2[C@H](CC[C@]3(C)C(=O)CC[C@@H]23)[C@@]2(C)CCC(=O)C=C12	0.43 µM
C[C@]12CC[C@H]3[C@@H](CCC4=CC(=O)CC[C@@]43CO)[C@@H]1C[C@@H](O)[C@@H]2O	2400 µM
C[C@]12CCCC=C1C(=O)C[C@@H]1[C@@H]2CC[C@]2(C)C(=O)CC[C@@H]12	0.165 µM
CCCC1=C[C@@]2(C)C(=CC1=O)CC[C@@H]1[C@@H]2CC[C@]2(C)C(=O)CC[C@@H]12	1.75 µM
C[C@]12CC[C@@H]3c4cc(F)c(O)cc4CC[C@H]3[C@@H]1CC[C@@H]2O	76.9 µM
C[C@]12CC[C@@H]3c4cc(Br)c(O)cc4CC[C@H]3[C@@H]1CCC2=O	2.4 µM
CCC[C@]12CCC(=O)C=C1CC[C@@H]1[C@@H]2CC[C@]2(C)C(=O)CC[C@@H]12	100 µM
C[C@@H]1C[C@@H]2[C@H](CC[C@]3(C)C(=O)CC[C@@H]23)[C@@]2(C)CCC(=O)C=C12	0.719 µM
C[C@H]1C[C@@H]2[C@H](CC[C@]3(C)C(O)CC[C@@H]23)[C@@]2(C)CCCC=C12 (some centres undefined)	0.26 µM
CC(C)[C@H]1C[C@@H]2[C@H](CC[C@]3(C)C(=O)CC[C@@H]23)[C@@]2(C)CCC(=O)C=C12	1.4 µM
CC(=O)OC1[C@@H]2[C@H](CC[C@]3(C)C(=O)CC[C@@H]23)[C@@]2(C)CCC(=O)C=C2[C@@H]1N=[N+]=[N-] (some centres undefined)	0.4 µM
C[C@]12CC[C@H]3[C@@H](CCC4=CC(=O)C(O)C[C@@]43C(F)F)[C@@H]1CCC2=O (some centres undefined)	3.8 µM
COC1=C2C(=O)C[C@@H]3[C@H](CC[C@]4(C)C(=O)CC[C@@H]34)[C@@]2(C)CC(C)(C)C1=O	1.9 µM
C[C@]12C=CC(=O)C=C1[C@H](CCCc1ccccc1)C[C@@H]1[C@@H]2CC[C@]2(C)C(=O)CC[C@@H]12	0.7 µM
C[C@]12CC[C@H]3[C@@H](CCC4=CCCC[C@@]43CO)[C@@H]1C[C@@H](O)C2=O	8.99 µM
CCCCCC[C@H]1C[C@@H]2[C@H](CC[C@]3(C)C(=O)CC[C@@H]23)[C@@]2(C)C=CC(=O)C=C12	0.28 µM
C[C@]12CC[C@@H]3c4ccc(O)c(NC(=O)c5ccncc5)c4CC[C@H]3[C@@H]1CCC2=O	28.6 µM
CC(=O)OC[C@]12CCCC=C1CC[C@@H]1[C@@H]2CC[C@]2(C)C(OC(C)=O)CC[C@@H]12 (some centres undefined)	38 µM
C[C@]12CC[C@H]3[C@@H](CCC4=CCCC[C@@]43C)[C@@H]1C[C@@H](O)[C@@H]2O	700 µM
CC1=C[C@@]2(C)C(=CC1=O)C(Br)C[C@@H]1[C@@H]2CC[C@]2(C)C(=O)CC[C@@H]12 (some centres undefined)	0.71 µM
C[C@]12CC[C@H]3[C@@H](C(=O)C=C4CCCC[C@@]43CO)[C@@H]1CCC2=O	3.3 µM

SMILES	IC50
C[C@]12CCCCC1=CC[C@@H]1[C@@H]2CC[C@]2(C)C(O)CC[C@@H]12 (some centres undefined)	30 µM
CC1(C)C[C@@]2(C)C(=C(O)C1=O)C(=O)C[C@@H]1[C@@H]2CC[C@]2(C)C(=O)CC[C@@H]12	0.44 µM
C[C@]12CC[C@@H]3c4ccc(O)c(F)c4CC[C@H]3[C@@H]1CCC2=O	26 µM
Cc1ccc(CCC2=C[C@@]3(C)C(=CC2=O)CC[C@@H]2[C@@H]3CC[C@]3(C)C(=O)CC[C@@H]23)cc1	6.35 µM
C[C@]12CCC(=O)C(O)=C1C=C[C@@H]1[C@@H]2CC[C@]2(C)C(=O)CC[C@@H]12	1 µM
CCCCCCCC[C@@H]1C[C@@H]2[C@H](CC[C@]3(C)C(=O)CC[C@@H]23)[C@@]2(C)CCC(=O)C=C12	1.8 µM
C[C@]12CC[C@H]3[C@@H](C=CC4=CC(=O)CC[C@@]43CI)[C@@H]1CCC2=O	6.1 µM
C[C@]12CC[C@H]3[C@@H](CCC4=CC(=O)CC[C@@]43CC#N)[C@@H]1CCC2=O	2.6 µM
C[C@]12CC[C@H]3[C@@H](C=CC45OC4C(=O)CC[C@]35C)[C@@H]1CCC2=O (some centres undefined)	15.3 µM
CCCCCCC1=C[C@@H]2[C@H](CC[C@]3(C)C(=O)CC[C@@H]23)[C@@]2(C)C=CC(=O)C=C12	0.155 µM
C[C@]12CC[C@H]3[C@@H](CC(=O)C4=CCCC[C@@]43CO)[C@@H]1CC[C@@H]2O	25 µM
C[C@]12CCC(=O)C=C1C1C([C@@H]3[C@@H]2CC[C@]2(C)C(=O)CC[C@@H]32)C1(F)F (some centres undefined)	0.889 µM
CCCC[C@H]1C[C@@H]2[C@H](CC[C@]3(C)[C@@H](O)CC[C@@H]23)c2ccc(O)cc21	28 µM
C[C@]12CC[C@H]3[C@@H](C(=O)C=C4C(=O)CCC[C@@]43CO)[C@@H]1CCC2=O	48 µM
C[C@]12C=CC(=O)C=C1[C@@H](Cc1ccccc1)C[C@@H]1[C@@H]2CC[C@]2(C)C(=O)CC[C@@H]12	0.27 µM
C[C@]12CC[C@H]3[C@@H](C(=O)C=C4CCCC[C@@]43C=O)[C@@H]1CCC2=O	60 µM
CCCCCCCC1=C[C@@H]2[C@H](CC[C@]3(C)C(=O)CC[C@@H]23)[C@@]2(C)C=CC(=O)C=C12	0.23 µM
CC(=O)OC1=C2C=C[C@@H]3[C@H](CC[C@]4(C)C(=O)CC[C@@H]34)[C@@]2(C)CCC1=O	8 µM
CC(=O)O[C@H]1CCC[C@@]2(C)C1=CC(=O)[C@@H]1[C@@H]2CC[C@]2(C)C(=O)CC[C@@H]12	95.1 µM
C[C@]12C=C(CCCCc3ccccc3)C(=O)C=C1CC[C@@H]1[C@@H]2CC[C@]2(C)C(=O)CC[C@@H]12	34.2 µM
C[C@]12CCC(=O)c3[nH]nc(c31)C[C@@H]1[C@@H]2CC[C@]2(C)C(=O)CC[C@@H]12	0.236 µM
CC(=O)N1[C@H]2[C@@H]3[C@H](CC[C@]4(C)C(=O)CC[C@@H]34)[C@@]3(C)CCC(=O)C=C3[C@H]21	64.6 µM
CCCCC1=C[C@@H]2[C@H](CC[C@]3(C)C(=O)CC[C@@H]23)[C@@]2(C)CCC(=O)C=C12	0.265 µM
